Reference: US20220251084A1, “PROGRANULIN MODULATORS AND METHODS OF USING THE SAME” (ARKUDA THERAPEUTICS, priority 2019, published 2022)
Structures can show the parent of a compound that is named as a salt.

Test system: progranulin (PGRN) secretion, BV-2 cells
Assay: PGRN assay: progranulin induction cellular assay (ELISA of secreted mouse PGRN)
Format: cell-based
Conditions: Mus musculus, BV-2, PGRN assay, Table D; secreted mouse PGRN in cell culture medium, ELISA
In short: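 Progranulin induction measured in BV-2 cells plated at about 80% confluence the day before, given 1 h to attach, then incubated 16 h. Secreted mouse PGRN quantified by ELISA.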

| EC50 [nM] | Compound |
| --- | --- |
| 656 | CN1CCCN(C(=O)N2CCc3ccccc3[C@@H]2c2ccc(F)cc2)CC1 [Compound 2269, (S)-(1-(4-fluorophenyl)-3,4-dihydroisoquinolin-2(1H)-yl)(4-methyl-1,4-diazepan-1-yl)methanone] |
| 515 | CN1CC[C@H](N(C)C(=O)N2CCc3ccccc3[C@@H]2c2ccc(F)cc2)C1 [Compound 2270, (S)-1-(4-fluorophenyl)-N-methyl-N—((S)-1-methylpyrrolidin-3-yl)-3,4-dihydroisoquinoline-2(1H)-carboxamide] |
| 2030 | O=C(O[C@H]1CCNC1)N1CCc2ccccc2[C@H]1c1ccc(F)cc1 [Compound 2272] |
| 319 | CC1(C)CNC[C@H]1NC(=O)N1CCc2ccccc2[C@@H]1c1ccc(F)cc1 [Compound 2273] |
| 1400 | CN1CCC(C(=O)C(=O)N2CCc3ccccc3[C@@H]2c2ccc(F)cc2)C1 (stereo partly drawn) [Compound 2274, 1-((S)-1-(4-fluorophenyl)-3,4-dihydroisoquinolin-2(1H)-yl)-2-(1-methylpyrrolidin-3-yl)ethane-1,2-dione] |
| 428 | NC[C@@H]1CCN(C(=O)N2CCc3ccccc3[C@@H]2c2ccc(F)cc2)C1 [Compound 2279, ((S)-3-(aminomethyl)pyrrolidin-1-yl)((S)-1-(4-fluorophenyl)-3,4-dihydroisoquinolin-2(1H)-yl)methanone] |
| 1180 | O=C(N[C@H]1CNCC12CC2)N1CCc2ccccc2[C@@H]1c1ccc(F)cc1 [Compound 2280] |
| 273 | O=C(N[C@@H]1CNCC12CC2)N1CCc2ccccc2[C@@H]1c1ccc(F)cc1 [Compound 2281] |
| > 10000 | CN1CC(CNC(=O)N2CCc3ccccc3[C@@H]2c2ccc(F)cc2)C1 [Compound 2282] |
| > 10000 | CN(CC1CNC1)C(=O)N1CCc2ccccc2[C@@H]1c1ccc(F)cc1 [Compound 2283, (S)—N-(azetidin-3-ylmethyl)-1-(4-fluorophenyl)-N-methyl-3,4-dihydroisoquinoline-2(1H)-carboxamide] |
| 806 | N[C@H]1CCN(C(=O)N2CCc3ccccc3[C@@H]2c2ccc(F)cc2)C1 [Compound 2284] |
| 2840 | N[C@@H]1CCN(C(=O)N2CCc3ccccc3[C@H]2c2ccc(F)cc2)C1 [Compound 2286] |
| 351 | N[C@@H]1CCN(C(=O)N2CCc3ccccc3[C@@H]2c2ccc(F)cc2)C1 [Compound 2287] |
| 248 | NC[C@H]1CCN(C(=O)N2CCc3ccccc3[C@@H]2c2ccc(F)cc2)C1 [Compound 2288] |
| > 10000 | CN1CC[C@@H](O)[C@H](O)[C@H]1COC(=O)N1CCc2ccccc2[C@@H]1c1ccc(F)cc1 [Compound 2289, ((2R,3R,4R)-3,4-dihydroxy-1-methylpiperidin-2-yl)methyl (S)-1-(4-fluorophenyl)-3,4-dihydroisoquinoline-2(1H)-carboxylate] |
| 591 | CC1(C)CNC[C@@H]1OC(=O)N1CCc2ccccc2[C@@H]1c1ccc(F)cc1 [Compound 2291] |
| 431 | CC1(C)CNC[C@H]1OC(=O)N1CCc2ccccc2[C@@H]1c1ccc(F)cc1 [Compound 2292] |
| > 10000 | CN1C[C@@H](NC(=O)N2CCc3ccccc3[C@@H]2c2ccc(F)cc2)C(F)(F)C1 [Compound 2293, (S)—N—((R)-4,4-difluoro-1-methylpyrrolidin-3-yl)-1-(4-fluorophenyl)-3,4-dihydroisoquinoline-2(1H)-carboxamide] |
| > 10000 | CN1C[C@H](NC(=O)N2CCc3ccccc3[C@@H]2c2ccc(F)cc2)C(F)(F)C1 [Compound 2294, (S)—N—((S)-4,4-difluoro-1-methylpyrrolidin-3-yl)-1-(4-fluorophenyl)-3,4-dihydroisoquinoline-2(1H)-carboxamide] |
| 4020 | CN(C(=O)N1CCc2ccccc2[C@@H]1c1ccc(F)cc1)[C@@H]1CNCC1(F)F [Compound 2296, (S)—N—((R)-4,4-difluoropyrrolidin-3-yl)-1-(4-fluorophenyl)-N-methyl-3,4-dihydroisoquinoline-2(1H)-carboxamide] |
| > 10000 | CN(C(=O)N1CCc2ccccc2[C@@H]1c1ccc(F)cc1)[C@H]1CNCC1(F)F [Compound 2297, (S)—N—((S)-4,4-difluoropyrrolidin-3-yl)-1-(4-fluorophenyl)-N-methyl-3,4-dihydroisoquinoline-2(1H)-carboxamide] |
| > 10000 | CN1C[C@@H](N(C)C(=O)N2CCc3ccccc3[C@@H]2c2ccc(F)cc2)C(F)(F)C1 [Compound 2298, (S)—N—((R)-4,4-difluoro-1-methylpyrrolidin-3-yl)-1-(4-fluorophenyl)-N-methyl-3,4-dihydroisoquinoline-2(1H)-carboxamide] |
| > 10000 | CN1C[C@H](N(C)C(=O)N2CCc3ccccc3[C@@H]2c2ccc(F)cc2)C(F)(F)C1 [Compound 2299, (S)—N—((S)-4,4-difluoro-1-methylpyrrolidin-3-yl)-1-(4-fluorophenyl)-N-methyl-3,4-dihydroisoquinoline-2(1H)-carboxamide] |
| 160 | NC[C@@H]1CN(C(=O)N2CCc3ccccc3[C@@H]2c2ccc(F)cc2)CCO1 [Compound 2302, ((R)-2-(aminomethyl)morpholino)((S)-1-(4-fluorophenyl)-3,4-dihydroisoquinolin-2(1H)-yl)methanone] |
| 329 | NC[C@H]1CN(C(=O)N2CCc3ccccc3[C@@H]2c2ccc(F)cc2)CCO1 [Compound 2303] |
| 129 | CNC[C@@H]1CN(C(=O)N2CCc3ccccc3[C@@H]2c2ccc(F)cc2)CCO1 [Compound 2306] |
| 483 | CNC[C@H]1CN(C(=O)N2CCc3ccccc3[C@@H]2c2ccc(F)cc2)CCO1 [Compound 2307] |

More lines, now with the values behind:

| Compound | EC50 [nM] |
| --- | --- |
| O=C(O[C@H]1CNCC1(F)F)N1CCc2ccccc2[C@@H]1c1ccc(F)cc1 [Compound 2241] | 8790 |
| O=C(O[C@@H]1CNCC1(F)F)N1CCc2ccccc2[C@@H]1c1ccc(F)cc1 [Compound 2242] | 3950 |
| CN1CC[C@@H](NC(=O)N2CCc3ccccc3[C@@H]2c2ccc(F)cc2)C1 [Compound 2245] | 460 |
| O=C(OCC1CNC1)N1CCc2ccccc2[C@@H]1c1ccc(F)cc1 [Compound 2246, Azetidin-3-ylmethyl (S)-1-(4-fluorophenyl)-3,4-dihydroisoquinoline-2(1H)-carboxylate 2,2,2-trifluoroacetate] | 770 |
| CN1CCC(OC2(C(=O)N3CCc4ccccc4[C@@H]3c3ccc(F)cc3)CC2)CC1 [Compound 2247] | > 10000 |
| CN(C(=O)N1CCc2ccccc2[C@@H]1c1ccc(F)cc1)[C@H]1CCNC1 [Compound 2248] | 1240 |
| CN1CC[C@@H](OC(=O)N2CCc3ccccc3[C@@H]2c2ccc(F)cc2)C1 [Compound 2250, (R)-1-methylpyrrolidin-3-yl (S)-1-(4-fluorophenyl)-3,4-dihydroisoquinoline-2(1H)-carboxylate hydrochloride] | 100 |
| CN1CC[C@H](OC(=O)N2CCc3ccccc3[C@@H]2c2ccc(F)cc2)C1 [Compound 2251] | 110 |
| O=C(N1CCN2CCC1CC2)N1CCc2ccccc2[C@@H]1c1ccc(F)cc1 [Compound 2252] | 120 |
| CN(C(=O)N1CCc2ccccc2[C@@H]1c1ccc(F)cc1)[C@@H]1CCNC1 [Compound 2253, 1-(4-fluorophenyl)-N-methyl-((R)-pyrrolin-3-yl)-3,4-dihydroisoquinoline-2(1H)-carboxamide] | 110 |
| O=C(OC[C@]1(F)CCNC1)N1CCc2ccccc2[C@@H]1c1ccc(F)cc1 [Compound 2256] | 170 |
| O=C(NCC1CNC1)N1CCc2ccccc2[C@@H]1c1ccc(F)cc1 [Compound 2257, (S)—N-(azetidin-3-ylmethyl)-1-(4-fluorophenyl)-3,4-dihydroisoquinoline-2(1H)-carboxamide acetate] | 550 |
| O=C(OCC1(F)CNC1)N1CCc2ccccc2[C@@H]1c1ccc(F)cc1 [Compound 2258] | 270 |
| O=C1N[C@H](CNC(=O)N2CCc3ccccc3[C@@H]2c2ccc(F)cc2)CO1 [Compound 2259, (S)-1-(4-fluorophenyl)-N—(((R)-2-oxooxazolidin-4-yl)methyl)-3,4-dihydroisoquinoline-2(1H)-carboxamide] | > 10000 |
| O=C(O[C@@H]1CNCCOC1)N1CCc2ccccc2[C@@H]1c1ccc(F)cc1 [Compound 2260] | 730 |
| CN1CCN(C(=O)N2CCc3ccccc3[C@@H]2c2ccc(F)cc2)CC(F)(F)C1 [Compound 2261, (S)-(6,6-difluoro-4-methyl-1,4-diazepan-1-yl)(1-(4-fluorophenyl)-3,4-dihydroisoquinolin-2(1H)-yl)methanone hydrochloride] | > 10000 |
| O=C(N1CCNCC(F)(F)C1)N1CCc2ccccc2[C@@H]1c1ccc(F)cc1 [Compound 2262, (S)-(6,6-difluoro-1,4-diazepan-1-yl)(1-(4-fluorophenyl)-3,4-dihydroisoquinolin-2(1H)-yl)methanone] | > 10000 |
| O=C(O[C@H]1CNCCOC1)N1CCc2ccccc2[C@@H]1c1ccc(F)cc1 [Compound 2263] | 1280 |
| O=C(N1CCCNCC1)N1CCc2ccccc2[C@@H]1c1ccc(F)cc1 [Compound 2264, (S)-(1,4-diazepan-1-yl)(1-(4-fluorophenyl)-3,4-dihydroisoquinolin-2(1H)-yl)methanone] | 1060 |
| CN1CC[C@@H](N(C)C(=O)N2CCc3ccccc3[C@@H]2c2ccc(F)cc2)C1 [Compound 2265] | 286 |
| O=C(O[C@@H]1CCNC1)N1CCc2ccccc2[C@H]1c1ccc(F)cc1 [Compound 2266, (R)-pyrrolidin-3-yl (R)-1-(4-fluorophenyl)-3,4-dihydroisoquinoline-2(1H)-carboxylate] | 255 |
| CN1CCC(C(O)C(=O)N2CCc3ccccc3[C@@H]2c2ccc(F)cc2)C1 (stereo partly drawn) [Compound 2267, 1-((S)-1-(4-fluorophenyl)-3,4-dihydroisoquinolin-2(1H)-yl)-2-hydroxy-2-(1-methylpyrrolidin-3-yl)ethanone] | 130 |
| CC1(C)CNC[C@@H]1NC(=O)N1CCc2ccccc2[C@@H]1c1ccc(F)cc1 [Compound 2268] | 180 |

Same assay, conditions: PGRN assay, Table D; secreted mouse PGRN in cell culture medium, ELISA

| EC50 [nM] | Compound |
| --- | --- |
| 2910 | CN(C(=O)N1CCc2ccccc2[C@H]1c1ccc(F)cc1)[C@H]1CCNC1 [Compound 2254] |
